Measured values reported in US6077869A, “Aryl phenylhydrazides as selective COX-2 inhibitors for treatment of inflammation” (Ortho-McNeil Pharmaceutical, Inc., priority 1999, dated 2000).

Experiments:
cyclooxygenase 1 (COX-1) = test: Procedure II: cyclooxygenase 1 activity (6226); format: biochemical, Rat; settings: RBL-1 cell homogenate supernatant
Protocol: [Worded in the source for another target; this target is reported under the same test.] Rat basophilic leukemia cells (RBL-1; 5×10^7 viable cells/mL) were disrupted by homogenization on ice (four 20 sec bursts) with a Brinkman polytron. […] The pellet was discarded and the supernatant was saved as the source of enzymes. The supernatant was pre-incubated for five minutes at 37° C. in the presence of 2 mM of CaCl2 and compound or vehicle (1% DMSO). The conversion of AA into products by CO and LO was initiated by adding 10 μL (50 μCi) of 1-^14 C-AA to each tube and incubated at 37° C. for 20 minutes. The reaction was stopped by adjusting the pH of each sample to 3 to 3.5 with 2 M formic acid. Samples were extracted with three volumes of chloroform to isolate the products of 5-LO formed during the reaction. Fractions were dried under nitrogen, then resuspended in 40 μL of chloroform and spotted onto silica gel HL plates.
The plates were developed in A-9 solvent. The dried plates were analyzed using a Bioscan Imaging TLC scanner to determine the percentage of radiolabelled AA converted to 5-HETE (LO product) in each sample. The percentage of inhibition was calculated by:
[1-(5-HETE test)]/5-HETE control×100=% inhibition The IC50 was determined using a curve fit in Cricket Graph (Computer Associated), which provided the equation of the regressed line used in the calculation.

cyclooxygenase 2 (COX-2) = test: Procedure I: ability of the compounds to inhibit cyclooxygenase 2 (6217/6218); format: biochemical, Sheep; settings: Wh Cell

SMILES	IC50 (cyclooxygenase 1 (COX-1)) [µM]	IC50 (cyclooxygenase 2 (COX-2)) [µM]
O=C(NNc1ccc(Cl)cc1)c1ccc(Cl)cc1 [Example 1]	> 10	0.34
O=C(NNc1ccccc1)c1ccccc1 [Example 2]	> 10	10
O=C(NNc1ccccc1)c1ccc(Cl)cc1 [Example 3]	> 10	0.33
Cc1ccc(NNC(=O)c2ccc(Cl)cc2)cc1 [Example 7]	> 10	0.01
COc1ccc(C(=O)NNc2ccc(Cl)cc2)cc1 [Example 9]	> 10	0.47
COc1ccc(NNC(=O)c2ccc(Cl)cc2)cc1 [Example 10]		0.13
COc1ccc(C(=O)NNc2ccccc2)cc1 [Example 11]	> 10	> 10

Results, then the molecule that gave them:

IC50 (cyclooxygenase 1 (COX-1)) [µM]	IC50 (cyclooxygenase 2 (COX-2)) [µM]	SMILES
> 10	0.33	Cc1ccc(NNC(=O)c2ccccc2)cc1 [Example 4]
> 10	0.53	O=C(NNc1ccc(Cl)cc1)c1ccccc1 [Example 5]
> 10	> 10	CS(=O)(=O)c1ccc(NNC(=O)c2ccccc2)cc1 [Example 6]
> 10	> 10	CS(=O)(=O)c1ccc(NNC(=O)c2ccc(Cl)cc2)cc1 [Example 8]
> 10	0.18	COc1ccc(NNC(=O)c2ccccc2)cc1 [Example 12]
